Patent publication US20260365690A1, “COMPOUND FOR RNA CAPPING AND USE THEREOF” (GUANGZHOU HENOVCOM BIOSCIENCE CO., LTD., priority 2022, published 2026)

How the values were obtained:
[1] = test system: HEK293T cells; assay: Expression efficiency of capped luciferase mRNAs in HEK293T cells; assay type: cell-based; settings: 6 h after transfection of capped luciferase mRNA into HEK293T cells; ratio to N-7413 (= 1)
Description: 2. Evaluation of Expression Efficiency of Different Capped Luciferase mRNAs in HEK293T Cells
1) HNE293T cells were cultured in DMEM medium containing 10% FBS and penicillin/streptomycin at 37 °C and 5% CO2.
2) The cultured HEK293T cells were spread in a 96-well plate with 1.25×10^4 cells per well.
3) After the cells completely adhered to the wall, 0.5 μg of a mixture of mRNA sample and Polyplus jetMESSENGER was added to each well of cells, and cultured at 37 °C and 5% CO2 for 6 hours.
4) The growth medium was removed from the cells to be tested and the cells were rinsed with PBS. After centrifugation to remove PBS, 50 μL of 1× lysis buffer was added thereto, and cells and all liquid were transferred to a microcentrifuge tube, and then centrifuged at 12000×g and 4 °C for 2 min.
5) The supernatant was transferred to a new tube. Fluorescence readings were detected using the ONE-Glo Luciferase Assay System Kit.
3. All compounds, N-7413, negative control and blank control were tested under the same conditions, and some experimental results in the test results are shown in Table 5.
The relative fluorescence reading results (6 h) after transfection of capped mRNA into 293T cells are now provided, as shown in Table 5. It can be seen from the FIGURE that the mRNA capped by the compound of the present disclosure has a high expression level, and some cap structures can enable higher expression efficiency of mRNA compared to N-7413.

[2] = test system: mRNA; assay: Capping efficiency of mRNA by LC-MS; assay type: biochemical; settings: cap analog 4 mM in in vitro transcription, RNase H cleaved 5′ fragment
Description: (§1) 1) The plasmids were linearized and the DNA templates were purified.
(§2) 2) The mRNA was synthesized by in vitro transcription, using 11 cap structures of the present disclosure, positive control CleanCap®AG (3′OMe) (Trilink, N-7413), negative control (uncapped mRNA) and blank control (DNase/RNase-Free water), respectively.
(§3) The reaction was carried out at 37 °C for 2 to 3 hours. TURBO DNase digestion was carried out for 15 minutes. The mRNA was precipitated by LiC for 30 min or more or overnight, and the mRNA precipitate was washed with 75% ethanol, dried briefly to evaporate the ethanol, and the mRNA was redissolved with RNase-Free water.
Gradient annealing was performed in a PCR instrument: […]
5) Magnetic beads were pre-treated and bound to probes.
100 μL of magnetic beads were taken and placed on a magnetic stand. The storage solution was discarded, and 100 μL of 1*BW solution was added thereto. After mixing well, the mixture was placed on the magnetic stand, and the supernatant was discarded. The wash was carried out three times in the same way. 100 μL of wash A buffer was added thereto. After mixing well, the mixture was placed on the magnetic stand, and the supernatant was discarded. The wash was carried out three times in the same way. 100 μL of wash B buffer was added thereto. After mixing well, the mixture was placed on the magnetic stand, and the supernatant was discarded. The wash was carried out three times in the same way. 120 μL of the sample was added to the magnetic bead solution and incubated for 30 min at room temperature with gentle mixing while incubating.
6) The mRNA was cut to obtain the 5′ single-stranded sequence of mRNA bound to probes.
20 μL of RNase H (5 U/μL) was added thereto, incubated at 37 °C for 3 hours, and mixed well every half hour. 100 μL of 1*BW solution was added thereto. After mixing well, the mixture was placed on the magnetic stand, and the supernatant was discarded. The wash was carried out three times in the same way. 100 μL of deionized water solution was added thereto. After mixing well, the mixture was placed on the magnetic stand, and the supernatant was discarded. The wash was carried out three times in the same way. 100 μL of 75% methanol was added thereto at 80 °C, then the mixture was heated to 80 °C on a heating plate and held for 3 min, placed on the magnetic stand, and the supernatant was aspirated. The sample was dried at room temperature for 45 min to 10 μL using an evaporative centrifuge and then resuspended in 50 μL of 100 μM EDTA/1% MeOH for LC-MS analysis.
LC-MS was used to analyze the capping efficiency of mRNA synthesized by analogues with different cap structures. The capping efficiency results of some compounds in the detection results are now provided.

[3] = test system: mRNA; assay: mRNA synthesis by in vitro transcription (co-transcriptional capping), final product mass; assay type: biochemical; settings: obtained from 20 μL mRNA synthesis reaction system; T7 RNA Polymerase; cap analog 4 mM; 37 °C, 2 to 3 hours
Description: as §1, §2, §3
3) The transcription product was purified, and the reaction yield was calculated to provide the test results of some compounds, as shown in Table 2.

Structure (SMILES)	Relative fluorescence reading [1]	Capping efficiency [2]	Final product mass [3] [µg]
CO[C@@H]1[C@H](OP(=O)(O)OC[C@H]2O[C@@H](n3cnc4c(=O)[nH]c(N)nc43)[C@H](O)[C@@H]2O)[C@@H](COP(=O)(O)OP(=O)(O)OP(=O)(O)OC[C@H]2O[C@@H](n3c[n+](C)c4c(=O)[nH]c(N)nc43)[C@H](O)[C@@H]2C)O[C@H]1n1cnc2c(N)ncnc21 [Compound 1]	1.74	A (100% > A ≥ 95%)	96
CO[C@@H]1[C@H](OP(=O)(O)OC[C@H]2O[C@@H](n3cnc4c(=O)[nH]c(N)nc43)[C@H](O)[C@@H]2O)[C@@H](COP(=O)(O)OP(=O)(O)OP(=O)(O)OC[C@H]2O[C@@H](n3c[n+](C)c4c(=O)[nH]c(N)nc43)[C@H](O)[C@@H]2NC(C)=O)O[C@H]1n1cnc2c(N)ncnc21 [Compound 289]	1.70	A (100% > A ≥ 95%)	113
C=CC[C@H]1[C@@H](O)[C@H](n2c[n+](C)c3c(=O)[nH]c(N)nc32)O[C@@H]1COP(=O)(O)OP(=O)(O)OP(=O)(O)OC[C@H]1O[C@@H](n2cnc3c(N)ncnc32)[C@H](OC)[C@@H]1OP(=O)(O)OC[C@H]1O[C@@H](n2cnc3c(=O)[nH]c(N)nc32)[C@H](O)[C@@H]1O [Compound 710]	1.90	A (100% > A ≥ 95%)	108
CO[C@@H]1[C@H](OCOC[C@H]2O[C@@H](n3cnc4c(=O)[nH]c(N)nc43)[C@H](O)[C@@H]2O)[C@@H](COP(=O)(O)OP(=O)(O)OP(=O)(O)OC[C@H]2O[C@@H](n3c[n+](C)c4c(=O)[nH]c(N)nc43)[C@H](O)[C@@H]2C)O[C@H]1n1cnc2c(N)ncnc21 [Compound 57]	0.88	C (90% > C ≥ 80%)	90
